Results as given in patent publication US5318972A, “Pyrimidine nucleoside derivative and antiviral agent containing the derivative as active ingredient” (priority 1990, dated 1994).

How the values were obtained:
[1] = Cytotoxicity to uninfected MT-4 cells; type: cell-based; settings: human, 5 days incubation at 37° C., concentration at which 50% of cells were destroyed, read-out: 50% cytotoxic concentration to MT-4 cells
Procedure: (§1) In RPMI 1640 DM culture medium containing 20 mM of Hepes buffer solution, 10% fetal bovine serum and 20 µg/ml of gentamycin, 3×10^4 MT-4 cells (human T cell clone which is destroyed by the infection of HIV) were infected with HIV in an amount of 100 times as large as expected to cause 50% infection of the cells. Immediately thereafter, a predetermined amount of sample was added to the culture medium using 50 mg/ml sample solutions in dimethyl sulfoxide and the cells were cultured at 37° C.
(§2) After 5 days of incubation, the number of existing cells was counted to determine the concentration of the compound required for preventing the death of 50% of the MT-4 cells. Separately, MT-4 cells were cultured in the same way as above except that they were not infected with HIV to determine the concentration of the compound at which 50% of the MT-4 cells were destroyed.

HIV = test: Inhibitory activity for HIV infection (prevention of death of HIV-infected MT-4 cells); type: cell-based; settings: Human immunodeficiency virus 1, MT4, 120 h, 5 days incubation at 37° C., concentration preventing death of 50% of HIV-infected MT-4 cells
Procedure: as §1, §2

host cells = settings: background, clinical treatment of HIV-infection; cited from earlier work

| SMILES | CC50 at 120 h [1] | IC50 (HIV) | toxicity in the host cells (host cells) |
| --- | --- | --- | --- |
| Cc1cc(C)cc(Sc2c(C(C)C)c(=O)[nH]c(=O)n2COCCO)c1 [Compound 21, 6-(3,5-dimethylphenylthio)-1-[(2-hydroxyethoxy)methyl]-5-isopropyluracil] | 128 µM |  |  |
| CCc1c(Sc2cc(C)cc(C)c2)n(COCCO)c(=O)[nH]c1=O [Compound 2, 6-(3,5-dimethylphenylthio)-5-ethyl-1-[(2-hydroxyethoxy)methyl]uracil] | 149 µM |  |  |
| CCc1c(Sc2ccccc2)n(COCCO)c(=S)[nH]c1=O [Compound 1, 5-ethyl-1-[(2-hydroxyethoxy)methyl]-6-phenylthio-2-thiouracil] | 148 µM | 0.11 µM |  |
| CCc1c(Sc2ccccc2)n(COCCO)c(=O)[nH]c1=O [Compound 39, 5-ethyl-1-[(2-hydroxyethoxy)methyl]-6-(phenylthio)uracil] | 221 µM | 0.077 µM |  |
| CCCc1c(Sc2ccccc2)n(COCCO)c(=O)[nH]c1=O [compound 4, reference compound] | 282 µM | 13 µM |  |
| CCc1c(Cc2cc(C)cc(C)c2)n(COCCO)c(=O)[nH]c1=O [Compound 12, 6-(3,5-dimethylbenzyl)-5-ethyl-1-[(2-hydroxyethoxy)methyl]uracil] | 280 µM | 0.013 µM |  |
| CC(C)c1c(Sc2ccccc2)n(COCCO)c(=S)[nH]c1=O [Compound 20, 1-[(2-hydroxyethoxy)methyl]-6-phenylthio-5-isopropyl-2-thiouracil] | 400 µM | 0.059 µM |  |
| CCc1c(Sc2cc(Cl)cc(Cl)c2)n(COCCO)c(=O)[nH]c1=O [Compound 6, 6-(3,5-dichlorophenylthio)-5-ethyl-1-[(2-hydroxyethoxy)methyl]uracil] | 51 µM | 0.014 µM |  |
| CCc1c(Sc2cc(Cl)cc(Cl)c2)n(COCCO)c(=S)[nH]c1=O [Compound 7, 6-(3,5-dichlorophenylthio)-5-ethyl-1-[(2-hydroxyethoxy)methyl]-2-thiouracil] | 64 µM | 0.043 µM |  |
| CCc1c(Cc2ccccc2)n(COCCO)c(=O)[nH]c1=O [Compound 10, 6-benzyl-5-ethyl-1-[(2-hydroxyethoxy)methyl]uracil] | 391 µM | 0.35 µM |  |
| CCCc1c(Sc2ccccc2)n(COCCO)c(=S)[nH]c1=O [compound 3, reference compound] | 224 µM | 3.4 µM |  |
| Cc1cc(C)cc(Sc2c(C(C)C)c(=O)[nH]c(=S)n2COCCO)c1 [Compound 22, 6-(3,5-dimethylphenylthio)-1-[(2-hydroxyethoxy)methyl]-5-isopropyl-2-thiouracil] | 48 µM | 0.0045 µM |  |
| Cc1cn([C@H]2C[C@H](N=[N+]=[N-])[C@@H](CO)O2)c(=O)[nH]c1=O [3'-deoxy-3'-azidothymidine] |  |  | considerable strong toxicity |
| CCc1c(Sc2cc(C)cc(C)c2)n(COCCO)c(=S)[nH]c1=O [Compound 3, 6-(3,5-dimethylphenylthio)-5-ethyl-1-[(2-hydroxyethoxy)methyl]-2-thiouracil] | 227 µM | 0.0078 µM |  |
| Cc1cc(C)cc(Cc2c(C(C)C)c(=O)[nH]c(=O)n2COCCO)c1 [Compound 31, 6-(3,5-dimethylbenzyl)-1-[(2-hydroxyethoxy)methyl]-5-isopropyluracil] | 318 µM | 0.0066 µM |  |
| CC(C)c1c(Sc2ccccc2)n(COCCO)c(=O)[nH]c1=O [Compound 40, 1-[(2-hydroxyethoxy)methyl]-6-phenylthio-5-isopropyl-uracil] | 231 µM | 0.063 µM |  |
